As usually defined, the IC50 is the midpoint of a concentration-inhibition curve.

The first experiment deals with T1, Human Factor D (Homo sapiens, UniProt P00746).
T1 construct: purified from human serum; purchased Complement Technology, Inc; host or cells: human serum (natural protein, not recombinant)
T1 sequence (P00746 26-253): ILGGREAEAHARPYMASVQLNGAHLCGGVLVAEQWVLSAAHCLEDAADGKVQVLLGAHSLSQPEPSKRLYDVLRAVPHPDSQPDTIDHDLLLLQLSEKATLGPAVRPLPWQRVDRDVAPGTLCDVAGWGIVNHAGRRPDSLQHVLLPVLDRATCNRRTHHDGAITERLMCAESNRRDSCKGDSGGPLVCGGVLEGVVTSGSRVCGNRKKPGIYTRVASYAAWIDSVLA
Description: Human Factor D Assay. Format: biochemical. The note with it: Human Factor D 80 nM, substrate Z-L-Lys-SBzl, assay of Example 3; read-out: IC50 (Stars). In a few lines:
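Serum-purified human factor D (80 nM final) preincubated 5 min at room temperature with test compound in 50 mM Tris, 1M NaCl, pH 7.5. Z-L-Lys-SBzl substrate and DTNB then added, each at 100 μM final. IC50 from nonlinear regression of reaction rate against compound concentration.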
In the case of `CC(=O)c1nn(CC(=O)N2C[C@H](F)C[C@H]2C(=O)Nc2cccc(Br)n2)c2ccc(-c3ccc(C)cc3)cc12` [Compound 29, (2S,4R)-1-(2-(3-Acetyl-5-(p-tolyl)-1H-indazol-1-yl)acetyl)-N-(6-bromopyridin-2-yl)-4-fluoropyrrolidine-2-carboxamide], the 50% inhibitory concentration (IC50) is < 1000 nM.

The experiment is the same for the next values; noted with them: Human Factor D 80 nM, substrate Z-L-Lys-SBzl; Table 2; read-out: IC50 (Stars).
With `CC(=O)c1nn(CC(=O)N2[C@H](C(=O)NC(C)Cc3ccsc3)C[C@@]3(C)C[C@@H]23)c2c(C)cc(-c3cnc(C)nc3)cc12` (stereo partly drawn) [Compound 183, (1R,3S,5R)-2-{2-[3-acetyl-7-methyl-5-(2-methylpyrimidin-5-yl)indazol-1-yl]acetyl}-5-methyl-N-[1-(thiophen-3-yl)propan-2-yl]-2-azabicyclo[3.1.0]hexane-3-carboxamide], the IC50 was < 1000 nM.
Same read-out and setting: the value for `CC(=O)c1nn(CC(=O)N2[C@H](C(=O)NC3CCC4(CC3)OCCO4)C[C@@]3(C)C[C@@H]23)c2c(C)cc(-c3cnc(C)nc3)cc12` [Compound 138, (1R,3S,5R)-2-{2-[3-acetyl-7-methyl-5-(2-methylpyrimidin-5-yl)indazol-1-yl]acetyl}-N-{1,4-dioxaspiro[4.5]decan-8-yl}-5-methyl-2-azabicyclo[3.1.0]hexane-3-carboxamide] was > 10000 nM; that for `CC(=O)c1nn(CC(=O)N2[C@H](C(=O)NCCC3CC3)C[C@@]3(C)C[C@@H]23)c2c(C)cc(-c3cnc(C)nc3)cc12` [Compound 105, (1R,3S,5R)-2-{2-[3-acetyl-7-methyl-5-(2-methylpyrimidin-5-yl)indazol-1-yl]acetyl}-N-(2-cyclopropylethyl)-5-methyl-2-azabicyclo[3.1.0]hexane-3-carboxamide] was < 1000 nM; that for `CC(=O)c1nn(CC(=O)N2[C@H](C(=O)Nc3nc(Br)c(F)cc3C)C[C@@]3(C)C[C@@H]23)c2c(C)cc(-c3cnc(C(C)O)nc3)cc12` (stereo partly drawn) [Compound 96, (1R,3S,5R)-2-(2-(3-acetyl-5-(2-(1-hydroxyethyl)pyrimidin-5-yl)-7-methyl-11H-indazol-1-yl)acetyl)-N-(6-bromo-5-fluoro-3-methylpyridin-2-yl)-5-methyl-2-azabicyclo[3.1.0]hexane-3-carboxamide] was < 1000 nM.
On the same count and under the same terms, the figure for `CC(=O)c1nn(CC(=O)N2[C@H](C(=O)Nc3nc(Br)ccc3C3CC3)C[C@@]3(C)C[C@@H]23)c2ccc(-c3cnc(CO)nc3)cc12` [Compound 81, (1R,3S,5R)-2-(2-(3-acetyl-5-(2-(hydroxymethyl)pyrimidin-5-yl)-1H-indazol-1-yl)acetyl)-N-(6-bromo-3-cyclopropylpyridin-2-yl)-5-methyl-2-azabicyclo[3.1.0]hexane-3-carboxamide] is < 1000 nM; for `COc1ncc(-c2cc(C)c3c(c2)c(C(C)=O)nn3CC(=O)N2[C@H](C(=O)Nc3nc(Br)ccc3C)C[C@@]3(C)C[C@@H]23)cn1` [Compound 52, (1R,3S,5R)-2-(2-(3-acetyl-5-(2-methoxypyrimidin-5-yl)-7-methyl-1H-indazol-1-yl)acetyl)-N-(6-bromo-3-methylpyridin-2-yl)-5-methyl-2-azabicyclo[3.1.0]hexane-3-carboxamide] it is < 1000 nM.
Turning to `CC(=O)c1nn(CC(=O)N2[C@H](C(=O)Nc3nc(Br)ccc3C)C[C@@]3(C)C[C@@H]23)c2c(C)cc(-c3cnc(CO)cn3)cc12` [Compound 127, (1R,3S,5R)-2-(2-(3-acetyl-5-(5-(hydroxymethyl)pyrazin-2-yl)-7-methyl-1H-indazol-1-yl)acetyl)-N-(6-bromo-3-methylpyridin-2-yl)-5-methyl-2-azabicyclo[3.1.0]hexane-3-carboxamide], the IC50 was < 1000 nM.
For the compound `CC(=O)c1nn(CC(=O)N2[C@H](C(=O)Nc3cc(F)cc(Br)n3)C[C@@]3(C)C[C@@H]23)c2c(C)cc(-c3cnc(CO)nc3)cc12` [Compound 123, (1R,3S,5R)-2-(2-(3-acetyl-5-(2-(hydroxymethyl)pyrimidin-5-yl)-7-methyl-1H-indazol-1-yl)acetyl)-N-(6-bromo-4-fluoropyridin-2-yl)-5-methyl-2-azabicyclo[3.1.0]hexane-3-carboxamide], the IC50 was < 1000 nM.
`CC(=O)c1cn(CC(=O)N2[C@H](C(=O)Nc3nc(C(F)(F)F)ccc3C)C[C@@]3(C)C[C@@H]23)c2c(C)cc(-c3cnc4cc(C5CC5)nn4c3)cc12` [Compound 196, (1R,3S,5R)-2-(2-(3-acetyl-5-(2-cyclopropylpyrazolo[1,5-a]pyrimidin-6-yl)-7-methyl-1H-indol-1-yl)acetyl)-5-methyl-N-(3-methyl-6-(trifluoromethyl)pyridin-2-yl)-2-azabicyclo[3.1.0]hexane-3-carboxamide]: the IC50 was < 1000 nM.

Source of the values: patent US20230022157A1 (Achillion Pharmaceuticals, Inc., priority 2018, published 2023).
